Where a SMILES comes first, the peptide text is derived from it. Bridges are numbered along the chain shown (N, C = ends). [ ]: non-standard residue; d: D form. Ala(benzothiazol-2-yl) = N[C@@H](Cc1nc2ccccc2s1)C(=O)O; NH = not defined here
T1: EpoR in bone marrow cells (Mus musculus, UniProt P14753)
T1 construct: tissue Japan SLC; host or cells: mouse (ICR, female) femur bone marrow cells
T1 sequence (P14753 25-507): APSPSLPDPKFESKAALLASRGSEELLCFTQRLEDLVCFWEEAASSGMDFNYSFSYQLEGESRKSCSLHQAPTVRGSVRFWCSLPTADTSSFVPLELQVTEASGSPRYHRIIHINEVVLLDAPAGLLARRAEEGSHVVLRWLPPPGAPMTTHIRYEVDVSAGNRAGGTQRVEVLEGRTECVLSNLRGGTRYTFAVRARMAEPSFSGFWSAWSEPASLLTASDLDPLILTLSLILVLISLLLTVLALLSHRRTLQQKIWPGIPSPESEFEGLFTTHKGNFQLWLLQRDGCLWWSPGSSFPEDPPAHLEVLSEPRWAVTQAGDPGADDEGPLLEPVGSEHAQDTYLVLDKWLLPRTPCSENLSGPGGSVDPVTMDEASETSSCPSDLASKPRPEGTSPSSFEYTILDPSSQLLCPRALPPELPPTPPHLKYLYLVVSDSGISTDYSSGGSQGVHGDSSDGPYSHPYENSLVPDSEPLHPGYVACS

T2: EpoR in AsPC-1 cells (Homo sapiens, UniProt P19235)
T2 construct: The test used human pancreatic cancer derived AsPC-1 cells (ECACC, 96020930); host or cells: AsPC-1
T2 sequence (P19235 25-508): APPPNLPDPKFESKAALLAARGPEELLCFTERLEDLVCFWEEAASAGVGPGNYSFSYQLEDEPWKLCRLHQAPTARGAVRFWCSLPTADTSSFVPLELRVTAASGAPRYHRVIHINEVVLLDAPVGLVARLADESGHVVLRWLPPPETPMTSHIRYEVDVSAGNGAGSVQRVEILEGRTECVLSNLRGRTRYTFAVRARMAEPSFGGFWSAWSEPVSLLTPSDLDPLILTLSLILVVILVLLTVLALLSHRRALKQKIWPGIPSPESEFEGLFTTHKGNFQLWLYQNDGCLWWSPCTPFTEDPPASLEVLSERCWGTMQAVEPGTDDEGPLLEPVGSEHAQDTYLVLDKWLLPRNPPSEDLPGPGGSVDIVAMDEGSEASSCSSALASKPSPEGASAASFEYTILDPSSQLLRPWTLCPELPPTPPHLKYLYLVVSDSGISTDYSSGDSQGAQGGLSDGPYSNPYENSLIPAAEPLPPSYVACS

T3: EpoR in HCC1806 cells (Homo sapiens, UniProt P19235)
T3 construct: human breast cancer derived HCC1806 cells (ATCC, CRL-2335); host or cells: HCC1806
T3 sequence (P19235 25-508): T2 sequence (P19235 25-508)

T4: human βcR (CD131, CSF2RB) (human, UniProt P32927 17-897)
T4 construct: Endogenous on AsPC-1 and HCC1806 cells; also called βc receptor; IL3RB
T4 sequence: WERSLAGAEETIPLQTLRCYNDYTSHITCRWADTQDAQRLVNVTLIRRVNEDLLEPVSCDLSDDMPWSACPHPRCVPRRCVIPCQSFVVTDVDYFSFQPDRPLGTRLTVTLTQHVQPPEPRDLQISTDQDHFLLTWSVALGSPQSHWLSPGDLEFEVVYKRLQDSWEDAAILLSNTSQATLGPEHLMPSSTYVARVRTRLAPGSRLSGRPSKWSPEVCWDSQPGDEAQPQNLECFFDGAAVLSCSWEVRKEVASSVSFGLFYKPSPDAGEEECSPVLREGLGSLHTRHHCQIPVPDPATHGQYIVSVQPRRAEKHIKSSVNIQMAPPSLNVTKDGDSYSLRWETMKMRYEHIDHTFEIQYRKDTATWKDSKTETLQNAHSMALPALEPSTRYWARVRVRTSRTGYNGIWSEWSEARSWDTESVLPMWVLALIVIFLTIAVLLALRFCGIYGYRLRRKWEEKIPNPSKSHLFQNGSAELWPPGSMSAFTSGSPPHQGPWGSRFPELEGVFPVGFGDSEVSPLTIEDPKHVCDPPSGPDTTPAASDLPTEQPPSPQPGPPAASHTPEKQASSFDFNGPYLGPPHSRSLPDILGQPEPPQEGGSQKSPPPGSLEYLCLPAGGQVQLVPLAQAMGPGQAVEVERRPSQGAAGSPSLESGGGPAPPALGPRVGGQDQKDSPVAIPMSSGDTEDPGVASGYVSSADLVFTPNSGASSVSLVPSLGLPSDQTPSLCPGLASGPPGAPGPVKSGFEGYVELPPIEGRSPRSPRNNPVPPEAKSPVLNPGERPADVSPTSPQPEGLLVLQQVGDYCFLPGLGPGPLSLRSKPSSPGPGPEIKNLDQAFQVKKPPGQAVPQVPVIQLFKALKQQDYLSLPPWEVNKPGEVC

B1: Ac-SCHYGPLT (2-benzothiazolylalanine)VCK-NH-(biotin) (GT-11352) (peptide)
peptide: Ac-SCHYGPLT[Ala(benzothiazol-2-yl)]VCK-{NH-biotin}
modifications: disulfide 2-11; reading uncertain; also: printed as Ac-SCHYGPLT (2-benzothiazolylalanine)VCK-NH-(biotin)
notes: Synthetic, biotin-labeled peptide; also called anti-EpoR peptide
B2: human erythropoietin receptor (EpoR), wild-type (receptor)
chain: T2 sequence (P19235 25-508)
notes: Endogenous on human AsPC-1, HCC1806 and UT-7/Epo cells, or overexpressed from a vector in AsPC-1 and 293T cells; also called Epo receptor; wild-type EpoR

What was measured:
[1] = Body weight of AsPC-1 cancer bearing mice; assay type: in vivo, mouse; details: ERA-350 0.2 mg/day intraperitoneally, twice a week for 4 weeks
Procedure: AsPC-1 cells cultured in the similar manner as Example 1 were collected, suspended in RPMI-1640 medium containing 10% Matrigel (BD Bioscience, 354234), and transplanted subcutaneously to the right side on the back of a 6-week-old male nude mouse (Japan SLC, BALB/cSlc-nu/nu) (5×10^6/0.1 mL/mouse). The length (L) and width (W) of the tumor were measured using a digital caliper. When the tumor volume (V) calculated from the formula V=L×W^2/2 reached about 150 to 200 mm^3, the mice were separated into groups and administered with test compounds (ERA-350 and ERA-350+gemcitabine). Saline was administered to a control group. The compounds were administered intraperitoneally (0.1 mL/mouse, 6 mice/test compound) once daily (0.2 mg/day for ERA-350, and 1 mg/day for gemcitabine), twice a week for 4 weeks. The tumor size and body weight were measured twice a week to monitor the effect of the administration of test compounds.

[2] = target: T1, EpoR in bone marrow cells; assay: Immunofluorescence co-localization of biotin-labeled anti-EpoR peptide with EpoR in bone marrow cells; assay type: cell-based; details: 100 μM, 1 hour at 37° C.
Procedure: Bone marrow cells were harvested from mouse femur (Japan SLC, ICR, female).
(§1) These bone marrow cells (2×10^6 cells) and cancer cells (AsPC-1 cells and HCC1806 cells; both 2×10^3 cells) were incubated with GT-11352 (biotin labeled, 100 μM) for 1 hour at 37° C. in the presence or absence of recombinant human erythropoietin (rhEpo) (10 U/mL). Subsequently, the cells were fixed with formalin, blocked, and subjected to immunofluorescent staining. The nucleus was stained by DAPI staining. The cells were observed through fluorescence with a microscope (Keyence, BZ-X800). The following antibodies were used. • EpoR detection: rat anti-EpoR antibody (Merck, clone BCO-3H2) and anti-rat IgG-Alexa® Fluor 594 (Abcam, ab150160) • GT-11352 detection: streptavidin-FITC (Tokyo Chemical Industry, S0966)

EpoR in AsPC-1 cells = target: T2, EpoR in AsPC-1 cells; assay: Immunofluorescence co-localization of biotin-labeled anti-EpoR peptide with EpoR in AsPC-1 cells; assay type: cell-based; details: 100 μM, 1 hour at 37° C.
Procedure: (§2) The test used human pancreatic cancer derived AsPC-1 cells (ECACC, 96020930) and human breast cancer derived HCC1806 cells (ATCC, CRL-2335) that were passaged (twice/week) under the condition of 37° C. and 5% CO2-95% air using RPMI-1640 medium (Sigma, R8758-500 ML) containing 10% fetal bovine serum (biowest, S182H-500) and 1 mM sodium pyruvate (gibco, 11360-070).
as §1

EpoR in HCC1806 cells = target: T3, EpoR in HCC1806 cells; assay: Immunofluorescence co-localization of biotin-labeled anti-EpoR peptide with EpoR in HCC1806 cells; assay type: cell-based; details: 100 μM, 1 hour at 37° C.
Procedure: as §2, §1

[3] = target: B2; assay: immunofluorescence colocalization on AsPC-1 and HCC1806 cells, GT-11352 100 µM, no rhEpo
[4] = target: T4, human βcR (CD131, CSF2RB); assay: co-immunoprecipitation from membrane fractions of AsPC-1 cells (IP with anti-EpoR VP-2E8, blot with anti-EpoR BCO-3H2 or anti-βcR polyclonal antibody)
Procedure: The stable expression strain was cultured and collected. Membrane fractions were prepared using a commercially available membrane protein extraction kit (Mem-PER Plus Membrane Protein Extraction Kit, Thermo Scientific).

Molecule: CSCC[C@@H]1NC(=O)[C@@H]2CCCN2C(=O)CNC(=O)[C@H](Cc2ccc(O)cc2)NC(=O)[C@H](Cc2c[nH]cn2)NC(=O)[C@@H](NC(=O)[C@H](CO)NC(C)=O)CSSC[C@@H](C(=O)N[C@@H](CCCCN)C(N)=O)NC(=O)[C@H](C(C)C)NC(=O)[C@H](Cc2nc3ccccc3s2)NC(=O)[C@H]([C@@H](C)O)NC1=O [ERA-350] (Ac-SCHYGPMT[Ala(benzothiazol-2-yl)]VCK-NH2; disulfide 2-11)
- Body weight [1]: did not affect the body weight

Molecule: Ac-SCHYGPLT (2-benzothiazolylalanine)VCK-NH-(biotin) [GT-11352]
- Co-localization of EpoR and peptide ([2]; absence of erythropoietin): exhibited colocalization
- Co-localization of EpoR and peptide ([2]; presence of rhEpo 10 U/mL): did not exhibit co-localization
- Co-localization of EpoR and peptide (EpoR in AsPC-1 cells; absence of erythropoietin): exhibited colocalization
- Co-localization of EpoR and peptide (EpoR in AsPC-1 cells; presence of rhEpo 10 U/mL): exhibited colocalization
- Co-localization of EpoR and peptide (EpoR in HCC1806 cells; absence of erythropoietin): exhibited colocalization
- Co-localization of EpoR and peptide (EpoR in HCC1806 cells; presence of rhEpo 10 U/mL): exhibited colocalization

Molecule: B1
- binding result [3]: binds

Molecule: B2
- binding result [4]: binds

Source: patent US20230310539A1, “TREATMENT OF DISEASE WITH EPOR ANTAGONIST” (Epo-Med Inc., priority 2020, published 2023)
